Data set [1] has as its target T1, LieIF (Leishmania infantum, UniProt A4HRK0).
T1 construct: His tag; made in house; host or cells: Escherichia coli Rosetta (Novagen)
T1 sequence (A4HRK0 1-403): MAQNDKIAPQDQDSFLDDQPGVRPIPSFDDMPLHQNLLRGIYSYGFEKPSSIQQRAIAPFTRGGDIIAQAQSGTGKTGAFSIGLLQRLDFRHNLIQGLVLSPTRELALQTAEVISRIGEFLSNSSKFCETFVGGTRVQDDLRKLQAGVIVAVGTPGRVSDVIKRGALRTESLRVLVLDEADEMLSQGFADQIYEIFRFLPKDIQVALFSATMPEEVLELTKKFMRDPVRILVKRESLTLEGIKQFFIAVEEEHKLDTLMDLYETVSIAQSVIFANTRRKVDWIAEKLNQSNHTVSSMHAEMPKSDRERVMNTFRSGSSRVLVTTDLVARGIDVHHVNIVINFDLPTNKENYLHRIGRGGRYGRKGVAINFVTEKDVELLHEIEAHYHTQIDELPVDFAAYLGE
Description: Malachite green RNA-dependent ATPase assay of LieIF. Type of data set: biochemical. The conditions noted are these: for effect on the ATPase activity of LieIF in screen: screened at 500 μM. The protocol:
(§1) The Rosetta Escherichia coli strain (Novagen) was used for the expression of His-tagged recombinant LieIF and mouse eIF4AI (eIF4AIMus) proteins using already described constructs. Protein expression was performed as previously described, except that cultures were induced with 0.5 mM IPTG. Cells were collected by centrifugation and stored at -20°C until needed. Pellets were resuspended in 10 ml of buffer A (Tris-HCl, pH 7.5, 300 mM NaCl) supplemented with 10 mM imidazole and 0.02% NP40 (lysis buffer). Lysozyme (10 μg/ml, Sigma-Aldrich, St. Louis, MO, USA) and 1x of complete protease inhibitor EDTA-free cocktail (Roche, Indianapolis, USA) were added. The mixtures were kept on ice for 30 min. Then, cells were ruptured by sonication four times for 20 seconds with a Cell Disruptor W375 (Heat System-Ultrasonic, Plainview, N.Y., USA) using a microprobe at a setting of 5 and a duty cycle of 60%. The material was centrifuged for 30 min at 15,000 rpm in a JA-20 rotor (Beckman Coulter, Villepinte, France) at 4°C, and the supernatant was loaded onto a 1 ml nickel-nitrilotriacetic acid (Ni-NTA) agarose column (Ni-NTA, Qiagen, Hilden, Germany) equilibrated with the lysis buffer. The column was washed with 20 ml buffer A supplemented with 25 mM imidazole and 0.02% NP40 (wash buffer 1), and then with 20 ml buffer A supplemented with 25 mM imidazole (wash buffer 2). Proteins were eluted with buffer A supplemented with 100 mM imidazole (elution buffer). The purity of the proteins was checked on 12% SDS-PAGE gels that were stained with Coomassie blue. Purified proteins were stored at -80°C after making 50% in glycerol (w/w). The proteins concentrations were determined using the Bio-Rad Protein Dye Assay (Biorad, Munich, Germany).
(§2) We used a colorimetric assay based on Malachite green as previously described. We optimized the previously published conditions for the LieIF and eIF4AIMus ATPase assays to fit microtiter plates and the screening conditions by varying the quantities of proteins, ATP and magnesium acetate, and by testing different sources and concentrations of RNA. Each reaction was done in 50 μl. The final reaction buffers contained 50 mM potassium acetate, 20 mM MES, pH 6, either 5 mM or 1 mM magnesium acetate for LieIF or eIF4AIMus respectively, 2 mM dithiothreitol (DTT), 0.1 mg/ml bovine serum albumin (BSA) and 0.34 mg/ml whole yeast RNA (Type XI, Sigma). Reactions were incubated at 37°C for various times up to 45 min, and were stopped by adding 5 μl of 0.5 M ethylenediaminetetraacetic acid (EDTA) at pH 8. In experiments testing the compounds, samples dissolved in DMSO were added to the reaction in different concentrations. The final concentration of DMSO in the reaction was 10% (v/v). The reaction rates were determined by a linear regression fit of the initial, linear phase of the curves. Reaction rates were determined in three independent experiments for each compound concentration. Data were analyzed with Kaleidagraph (Synergy).
The Z’-factor is a statistical parameter used to measure the quality of a screening assay. For the biochemical screening, reactions were done with and without proteins as positive and negative controls, respectively. All assay conditions were identical to those described above. Positive controls were designed to replicate a positive hit in an inhibitor screen. Negative controls were designed as no enzymatic reactions. The phosphate released was measured after 45 min. Statistical analysis was performed using the equation: Z^′=1-3*(σ^++σ^-)/(μ^+-μ^-) (2) where μ^− and σ^− correspond to the mean absorbance and standard deviations respectively, for each reaction without enzyme (no activity), and μ^+ and σ^+ are the mean absorbance and standard deviations, respectively, for reaction wells in the presence of enzyme. The Z’-factor values above 0.5 were considered significant and corresponding plates were retained. […]

Data set [2] deals with T2, eIF4AIMus (Mus musculus, UniProt P60843).
T2 construct: His tag; made in house; host or cells: Escherichia coli Rosetta (Novagen)
Briefly: Malachite green RNA-dependent ATPase assay of eIF4AIMus. In kind it is biochemical. The conditions noted are these: for effect on the ATPase activity of eIF4AIMus in screen: screened at 500 μM. The protocol: as §1, §2
Biochemical screening experiments were performed in 96-well plates. Column 1 and 12 contained full signal controls (no inhibitor) and background controls (no enzyme): wells A1 to D1 and E12 to H12 corresponded to negative controls; E1 to H1 and A12 to D12 corresponded to positive controls. Compounds were added in columns 2 to 11, at a 500 μM final concentration. ATPase test reactions were done in three independent experiments. The phosphate released was measured after 45 min. Results were reported as weighted means. Z’-scores were calculated for each plate from the full signal and background controls. Plates with Z’-values below 0.5 were discarded. The inhibition of ATPase activity was calculated as follow: [85] Percentageofinhibition=(μ^+-OD630nmforcompoundX)/(μ^+-μ^-)*100 (3) Selected hits were further tested with kinetic assays. Results were reported as ATPase reaction velocities. […]

Data set [3] deals with L. infantum promastigotes. Description: MTT viability assay on promastigotes. The conditions noted are these: Leishmania infantum, stationary phase promastigotes, 24h exposure. In kind it is cell-based.
Description: The effect of the selected chemical compounds on the viability of L. infantum promastigotes was evaluated by a colorimetric MTT (3-(4,5-dimethylthiazol-2yl)-2,5-diphenyl tetrazolium bromide) assay that consisted in a reduction of tetrazolium salt to a soluble crystal (blue formazan) by the succinate dehydrogenase activity of mitochondria in living cells, which can be quantified by spectrophotometry as previously described. […] Briefly, 90 μl of promastigotes harvested from the stationary growth phase were added to a 96-well culture plate (5 × 10^5 cells/well) with 10 μl of various concentrations of the selected compounds (to obtain a final concentration of 1.5-100 μM) and incubated at 25°C for 24h. After incubation, 20 μl of MTT solution (5 mg/ml) were added to each well and incubated at 25°C for 4h. Then, 150 μl of DMSO was added to each well to dissolve the blue formazan and the optical density (OD) was measured at 560 nm with a microplate reader ([sequence], Labsystems). Mock treated-promastigotes in complete medium (with no drug, 1% DMSO) were used as positive control. Stock solutions of the compounds prepared for these experiments contained 100% DMSO. All subsequent dilutions were freshly made with RPMI 1640 (final concentration of 10% DMSO). Thus, all compounds, as well as the positive control, were tested at a final concentration of 1% DMSO per well.
The promastigotes viability was expressed as the percentage of the viable promastigotes in treated conditions relative to the 1% DMSO mock-treated promastigotes. The IC50 values were calculated for all the tested compounds by interpolation. […] All experiments were repeated three times in triplicate for each compound concentration. Absorbance measured was used to reflect promastigote or cell viability using the following formula: %cellviability=[(ODtest-ODblank)/(ODcontrol-ODblank)]*100 (4)
The subject of data set [4] is L. infantum intramacrophage amastigotes. Description: Macrophage infection assay, intramacrophage amastigotes. In kind it is cell-based, Leishmania infantum. The conditions noted are these: infected THP-1-derived macrophages, 24h exposure. The protocol: [86] […] [87] […] [87]
After careful washing of PMA-treated THP-1 cells (50,000 cells/well) with warm serum-free RPMI-1640 (∼ 37°C) media, 50 μl of the diluted L. infantum promastigote culture were added at the optimized MOI (10:1). Control wells of THP-1 cells without the parasites, and THP-1 cells with the parasites, were set up in each 8-well Labtek slides. The slides were incubated at 37°C, 5% CO2 overnight. After incubation, infected wells were washed at least 3 times with serum-free RPMI-1640 media to ensure complete removal of non-engulfed promastigotes, and then they were incubated in presence of different concentrations of compounds for 24 h. Control groups were incubated in supplemented RPMI medium containing 1% DMSO. Cells were then fixed and stained with RAL 555 rapid stain kit (May-Grünwald Type) (Cell Path, Newtown, UK) following the manufacturer’s instructions. The number of infected cells per 100 macrophages and the total number of parasites per 100 cells observed were determined by light microscopy under immersion oil (1000X) by counting at least 100 cells per well. Three independent experiments were conducted for each compound concentration. These values allowed us to determine the mean values and standard deviations of the percentage of infected cells and the mean amastigote number per cell. To account for the overall parasite load, an Infection Index was calculated by multiplying these two values; then, to assess the infection inhibition by the compounds, the percentage of Inhibition Parasite Index (IPI) was determined as: IPI = 100 − ((Infection Index in treated cells/Infection Index in untreated cells) * 100).
The amastigote IC50 values were calculated for all tested compounds. Selectivity index was also determined for each compound as follows: SI = CC50/IC50. Data were analyzed with Kaleidagraph (Synergy). The statistical significance of differences was determined with the Student’s t-test (* p < 0.05; ** p < 0.01).

A short description of data set [5]: MTT cytotoxicity assay on THP-1-derived macrophages. The conditions noted are these: human, THP-1-derived macrophages (PMA-differentiated).
Description: The human myelomonocytic cell line, THP-1 was ordered from the American Type Culture Collection (ATCC, TIB-202). [86] Cells were maintained in RPMI 1640/Glutamax-I media (Gibco BRL, Germany) supplemented with 10% heat-inactivated fetal calf serum (Gibco, Germany) plus penicillin G (100 U/ml) and streptomycin (100 g/ml). THP-1 cells were differentiated to macrophages after their treatment with 20 ng/ml phorbol 12-myristate 7-acetate (PMA) (Sigma, St. Louis, MO, USA) for 48 h at 37°C, 5% CO2. [87] […] [87]
For the cytotoxicity assay, we used the THP-1-derived macrophages (50,000 cells/well) seeded in 96-well plates and treated with serial concentrations of compounds (final concentrations of 1.5-100 μM) for 24h. After that, an MTT assay was performed as previously described to determine cell viability. [88] Thus, 20 μl of MTT solution (5 mg/ml) were added to each well and incubated at 25°C for 4h. Then, 150 μl of DMSO were added to each well to dissolve the blue formazan and the optical density (OD) was measured at 560 nm with a microplate reader ([sequence], Labsystems).
The cell viability of THP-1-derived macrophages was expressed as the percentage of the viable cell number in treated cells relative to the THP-1-derived macrophages treated with 1% DMSO. The 50% cytotoxic concentrations (CC50) were calculated for all the tested compounds by interpolation. All experiments were repeated three times in triplicate for each compound concentration.
The test system of data set [6] is intracellular L. donovani amastigotes. Set-up: method as in PMID 16949702. The conditions noted are these: at 1.94 μM; cited from earlier work.
[7] abbreviates: Leishmania infantum, Macrophage, 24 h.
Setting [8] is: 1 μM protein, 1 mM ATP, saturating RNA, read-out: IC50 of eIF4AIMus ATPase activity.

Read-outs that look alike come from different tables or passages of the source.

The term IC50 denotes the concentration needed to halve the response being measured. The term CC50 denotes the concentration that lowers cell viability or growth by half. A high value points to better tolerance by the cells. The inhibition is the relative decrease from the control value, in per cent.

T2 sequence (P60843 whole entry): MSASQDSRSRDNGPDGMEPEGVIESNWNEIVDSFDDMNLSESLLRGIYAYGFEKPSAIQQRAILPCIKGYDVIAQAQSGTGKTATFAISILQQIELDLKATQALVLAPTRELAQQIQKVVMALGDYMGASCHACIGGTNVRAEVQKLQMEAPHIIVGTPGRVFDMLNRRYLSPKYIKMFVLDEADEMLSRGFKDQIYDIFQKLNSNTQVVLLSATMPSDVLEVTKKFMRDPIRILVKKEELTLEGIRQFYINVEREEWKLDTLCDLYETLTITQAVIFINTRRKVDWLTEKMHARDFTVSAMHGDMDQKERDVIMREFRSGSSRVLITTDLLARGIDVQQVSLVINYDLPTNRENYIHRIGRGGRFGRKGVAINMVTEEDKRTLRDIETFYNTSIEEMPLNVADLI

As for `CC(C)CCCC(C)C1CCC2C3CC(=O)C4CC(O)CCC4(C)C3CCC12C` (stereo not drawn) [Compound 48, 6-ketocholestanol], the half-maximal inhibitory concentration (IC50) in data set [1] is above 1 mM; in data set [1] (read-out: IC50 of LieIF ATPase activity, 1 μM protein, value printed in mM in text), at most 1 mM; in data set [2], above 1 mM; in data set [2] (read-out: IC50 of eIF4AIMus ATPase activity, 1 μM protein, value printed in mM in text), at most 1 mM; in data set [3], 39.1 ± 0.8 µM; in data set [4] (setting [7]), 4.2 ± 0.1 µM. Moreover, in data set [1], the “effect on the ATPase activity of LieIF in screen” value is “demonstrated inhibition”. Besides, in data set [2], the “effect on the ATPase activity of eIF4AIMus in screen” value is given as “demonstrated inhibition”. Moreover, in data set [5], the CC50 at 24 h is 81.4 ± 2.4 µM.

With `CC(C)CCCC(C)C1CCC2C3CC(N)C4CC(O)CCC4(C)C3CCC12C` (stereo not drawn) [Compound 20, 6-α-aminocholestanol], the concentration for half-maximal inhibition (IC50) in data set [1] is 0.16 ± 0.025 mM; in data set [2] (setting [8]), 0.185 ± 0.025 mM; in data set [3] it was 3.6 ± 0.1 µM; in data set [4] (setting [7]), below 1 µM; in data set [4], 0.9 µM. The “effect on the ATPase activity of LieIF in screen” value in data set [1] is “demonstrated inhibition”. Further, in data set [2], the “effect on the ATPase activity of eIF4AIMus in screen” value is “demonstrated inhibition”. Further, it took 35.2 ± 1.3 µM to reach half-maximal cytotoxicity in data set [5] (CC50 at 24 h).

Turning to `CC(C)CCCC(C)C1CCC2C3CC(N)C4CC(O)CCC4(C)C3CCC12C` (mixture of isomers) [Compound 208, 6-α/β-aminocholestanol], the IC50 in data set [1] is 0.15 ± 0.015 mM; in data set [2] (setting [8]) it was 0.115 ± 0.025 mM; in data set [3] it was 4.1 ± 2.6 µM; in data set [4] (setting [7]) it was 1.4 ± 0.1 µM. For the same compound, the inhibition at 500 µM in data set [1] (500 μM compound, phosphate released after 45 min, 96-well screen, read-out: percentage of inhibition of LieIF ATPase activity) is 90%. This compound showed a CC50 at 24 h in data set [5] of 43.4 ± 0.1 µM.

With 7-α/β-aminocholesterol, in data set [6], the “reduction of the number of intracellular L. donovani amastigotes” value was 59%.

The record behind these values is PMC5790279, “Identification of novel leishmanicidal molecules by virtual and biochemical screenings targeting Leishmania eukaryotic translation initiation factor 4A” (PLoS Neglected Tropical Diseases, 2018).
